Source: US11071768B2, “Caspofungin compositions for inhalation” (TRILOGY THERAPEUTICS, INC., priority 2018, dated 2021)
In brackets after ≈: the same amount, converted by molar mass. Where two headings read alike, the source gives them in different places.

Tests used:
Aspergillus terrus = conditions: cited from earlier work
Candida guilliermondii = conditions: 61 isolates; cited from earlier work
Aspergillus fumigatus = conditions: cited from earlier work
All Candida spp. = conditions: All Candida spp., 5,346 isolates; cited from earlier work
[1] = Toxicology observations in the rat pharmacokinetic study; type: in vivo; conditions: male rats, nose-only inhalation or intravenous injection
Method: A detailed, hand-held physical examination was conducted on all animals once during the quarantine period (prior to randomization). During the treatment period, the animals were observed daily for mortality or evidence of moribundity; these checks were separated by a minimum of four hours. Daily cage-side clinical observations were conducted during exposure, and daily hand-held clinical observations were conducted before and after exposure. Observations included, but were not limited to the following: changes in the skin and fur, eyes, and mucous membranes; effects on the respiratory, circulatory, autonomic and central nervous systems; and effects on somatomotor activity and behavior pattern.
Body Weights and Body Weight Changes: Body weights were determined one day after animal receipt; at randomization; and prior to exposure on Study Day 1, 2, 3 and 7 (as applicable based on scheduled euthanization).
Plasma and Tissue Samples/Necropsy: Whole blood samples were collected from three animals per time-point at approximately 0.5, 1, 2, 4, 8, 12, 24 and 48 hours and 7 days after dose administration for plasma drug level determination. Rats were anesthetized with 70% CO2/30% air and blood was collected from the retro-orbital plexus and placed into tubes containing anticoagulant (EDTA). Blood samples were placed on ice immediately following collection and processed (i.e., centrifuged) to plasma. The samples were then stored frozen (at approximately −70° C.) until analyzed. All study animals surviving to scheduled necropsy were euthanized by an overdose of an intraperitoneal injection of sodium pentobarbital at […]. Tissue specimens (lung, liver and kidney) were collected from three animals per time point at 0.5, 2, 24 and 48 hours and 7 days after dose administration. All tissue specimens were stored frozen at approximately −70° C. until analyzed.

Candida tropicalis = conditions: 625 isolates; cited from earlier work
[2] = 2 mg/kg, cited from earlier work
Candida parapsilosis = conditions: 759 isolates; cited from earlier work
Candida glabrata = conditions: 747 isolates; cited from earlier work
Candida krusei = conditions: 136 isolates; cited from earlier work
Aspergillus nidulans = conditions: cited from earlier work
Candida albicans = conditions: 2869 isolates; cited from earlier work
Aspergillus versicolor = conditions: 75 isolates; cited from earlier work
Aspergillus flavus = conditions: cited from earlier work
Aspergillus niger = conditions: cited from earlier work

CC[C@H](C)C[C@H](C)CCCCCCCCC(=O)N[C@H]1C[C@@H](O)[C@@H](NCCN)NC(=O)[C@@H]2[C@@H](O)CCN2C(=O)[C@H]([C@H](O)CCN)NC(=O)[C@H]([C@H](O)[C@@H](O)c2ccc(O)cc2)NC(=O)[C@@H]2C[C@@H](O)CN2C(=O)[C@H]([C@@H](C)O)NC1=O [caspofungin]
MIC90 Average (Geometric Mean MIC) (Aspergillus terrus; 11 isolates): 0.12 mg/L (≈ 0.11 µM) | MIC90 Range (Aspergillus terrus; 11 isolates): 0.06 to .2 mg/L | MEC Average (Mode) (Aspergillus terrus; 385 isolates): 0.06 µg/mL | MEC Range (Aspergillus terrus; 385 isolates): 0.016 to 2 µg/mL | MIC90 (Candida guilliermondii): 1 mg/L (≈ 0.915 µM) | MIC90 Average (Geometric Mean MIC) (Aspergillus fumigatus; 56 isolates): 0.25 mg/L (≈ 0.229 µM) | MIC90 Range (Aspergillus fumigatus; 56 isolates): 0.12 to 4 mg/L | MEC Average (Mode) (Aspergillus fumigatus; 1691 isolates): 0.25 µg/mL | MEC Range (Aspergillus fumigatus; 1691 isolates): 0.016 to 32 µg/mL | MIC90 (All Candida spp.): 0.25 mg/L (≈ 0.229 µM) | Clinical signs of toxicity [1]: no clinical signs of toxicity | Effects on body weight [1]: no effects on body weight | Gross necropsy findings [1]: no gross necropsy findings | Mortality [1]: no test-article related mortality | MIC90 (Candida tropicalis): 0.06 mg/L (≈ 0.0549 µM) | Kidney concentration, radiolabeled compound (Stone 2004) ([2]; 0.5 h): 9.15 µg/g | Kidney concentration, radiolabeled compound (Stone 2004) ([2]; 2 h): 10.60 µg/g | Kidney concentration, radiolabeled compound (Stone 2004) ([2]; 24 h): 11.40 µg/g | MIC90 (Candida parapsilosis): 1 mg/L (≈ 0.915 µM) | MIC90 (Candida glabrata): 0.06 mg/L (≈ 0.0549 µM) | MIC90 (Candida krusei): 0.25 mg/L (≈ 0.229 µM) | MIC90 Average (Geometric Mean MIC) (Aspergillus nidulans; 13 isolates): 0.44 mg/L (≈ 0.402 µM) | MIC90 Range (Aspergillus nidulans; 13 isolates): 0.2 to 4 mg/L | MEC Average (Mode) (Aspergillus nidulans; 192 isolates): 0.12 µg/mL | MEC Range (Aspergillus nidulans; 192 isolates): 0.032 to 16 µg/mL | MIC90 (Candida albicans): 0.06 mg/L (≈ 0.0549 µM) | MEC Average (Mode) (Aspergillus versicolor): 0.12 µg/mL | MEC Range (Aspergillus versicolor): 0.032 to 2 µg/mL | MIC90 Average (Geometric Mean MIC) (Aspergillus flavus; 13 isolates): 0.2 mg/L (≈ 0.183 µM) | MIC90 Range (Aspergillus flavus; 13 isolates): 0.06 to 2 mg/L | MEC Average (Mode) (Aspergillus flavus; 432 isolates): 0.06 µg/mL | MEC Range (Aspergillus flavus; 432 isolates): 0.016 to 32 µg/mL | MIC90 Average (Geometric Mean MIC) (Aspergillus niger; 10 isolates): 0.14 mg/L (≈ 0.128 µM) | MIC90 Range (Aspergillus niger; 10 isolates): 0.06 to 0.5 mg/L | MEC Average (Mode) (Aspergillus niger; 440 isolates): 0.06 µg/mL | MEC Range (Aspergillus niger; 440 isolates): 0.016 to 2 µg/mL
